Experimental data: US11066416B2, “Rapafucin derivative compounds and methods of use thereof” (The Johns Hopkins University, priority 2016, dated 2021)

Experiments:
Type in all cases: cell-based
[1] = tested on: nucleoside uptake (3H-Thymidine); assay: Nucleoside uptake assay (uptake) using 3H-Thymidine, IC50, cell line as indicated in each table (none given in Table 8); conditions: 3H-Thymidine uptake; cell line not given
Protocol: (§1) Nucleoside Uptake Assay (uptake). Nuceloside uptake assays were performed with using 3H-Thymidine as described in Guo et al. (2018) Nat. Chem. 11:254-63. Specific cell lines are indicated in each assay and cultured in complete growth media. Activity is scored according to the IC50 values relative to DMSO control. “Low” indicates an IC50 greater than 600 nM, “Medium” indicates an IC50 between 300 nM and 600 nM “High” indicates an IC50 less than 300 nM. “Rel.Uptake” refers to uptake activity characterization relative to a single concentration assay. “Low” indicates a response greater than 0.6 times the activity relative to DMSO, “Medium” indicates a response between 0.6 and 0.3 times the activity relative to DMSO, “High” indicates a response less than 0.3 times the activity relative to DMSO.

H929 = assay: Cell proliferation assay (Prolif.), H929; conditions: H929 cells; Table 11
Protocol: Cell Proliferation Assay (Prolif.) Guo et al. (2018) Nat. Chem. 11:254-63. Specific cell lines are indicated in each assay and cultured in complete growth media. Activity is scored according to the IC50 values relative to DMSO control. “Low” indicates an IC50 greater than 600 nM, “Medium” indicates an IC50 between 300 nM and 600 nM “High” indicates an IC50 less than 300 nM. “Rel.Uptake” refers to uptake activity characterization relative to a single concentration assay. “Low” indicates a response greater than 0.6 times the activity relative to DMSO, “Medium” indicates a response between 0.6 and 0.3 times the activity relative to DMSO, “High” indicates a response less than 0.3 times the activity relative to DMSO.

[2] = tested on: nucleoside uptake (3H-Thymidine); assay: Rel.Uptake: nucleoside uptake, single concentration assay, cell line as indicated in each table; conditions: 293T, nucleoside uptake, response relative to DMSO
Protocol: as §1

CC[C@H](C)[C@H]1C(=O)N(C)CC/C=C/C(=O)OCC(C)(C)C(=O)C(=O)N2CCCC[C@H]2C(=O)O[C@H](CCc2ccc(OC)c(OC)c2)c2cccc(c2)NC(=O)CCC(=O)N[C@@H](c2ccccc2)C(=O)N(C)[C@H](Cc2ccccc2)C(=O)N2CCC[C@H]2C(=O)N1C [Compound 1616]
IC50 [1]: 100 nM

COc1ccc(CC[C@H]2OC(=O)[C@@H]3CCCCN3C(=O)C(=O)C(C)(C)COC(=O)C=CCCN(C)C(=O)[C@@H](Cc3ccccc3)NC(=O)CN(C)C(=O)[C@@H](Cc3ccccc3)NC(=O)[C@H](Cc3ccc(O)cc3)N(C)C(=O)COc3cccc2c3F)cc1OC [Compound 1579]
Prolif, H929 (H929): medium
Rel. Uptake, 293T [2]: medium

COc1ccc(CC[C@H]2OC(=O)[C@@H]3CCCCN3C(=O)C(=O)C(C)(C)COC(=O)/C=C/CCN(C)C(=O)[C@H](C(C)C)N(C)C(=O)[C@@H]3CCCN3C(=O)[C@@H](Cc3ccccc3)N(C)C(=O)[C@H](C)NC(=O)CCC(=O)Nc3cccc2c3)cc1OC [Compound 1606]
IC50 [1]: 23.7 nM

COc1ccc(CC[C@H]2OC(=O)[C@@H]3CCCCN3C(=O)C(=O)C(C)(C)COC(=O)/C=C/CCN(C)C(=O)[C@H](C(C)C)N(C)C(=O)[C@@H]3CCCN3C(=O)[C@@H](Cc3ccccc3)N(C)C(=O)CNC(=O)CCC(=O)Nc3cccc2c3)cc1OC [Compound 1605]
IC50 [1]: 27.9 nM

COc1ccc(CC[C@H]2OC(=O)[C@@H]3CN(C(=O)OCC4c5ccccc5-c5ccccc54)CCN3C(=O)C(=O)C(C)(C)COC(=O)C=CCCN(C)C(=O)[C@@H](Cc3ccccc3)NC(=O)CN(C)C(=O)[C@@H](Cc3ccccc3)NC(=O)[C@H](Cc3ccc(O)cc3)N(C)C(=O)COc3cccc2c3)cc1OC [Compound 1572]
Prolif, H929 (H929): low
Rel. Uptake, 293T [2]: low

COc1ccc(CC[C@H]2OC(=O)[C@@H]3CCCCN3C(=O)C(=O)C(C)(C)COC(=O)C=CCCN(C)C(=O)[C@@H](Cc3ccccc3)NC(=O)CN(C)C(=O)[C@@H](Cc3ccccc3)NC(=O)[C@H](Cc3ccc(O)cc3)N(C)C(=O)COc3cccc2c3)c(O)c1OC [Compound 1584]
Prolif, H929 (H929): low
Rel. Uptake, 293T [2]: low

COc1ccc(CC[C@H]2OC(=O)[C@@H]3CCCCN3C(=O)C(=O)C(C)(C)COC(=O)C=CCCN(C)C(=O)[C@H](CC(C)C)N(C)C(=O)[C@@H]3CCCN3C(=O)[C@@H](Cc3ccccc3)N(C)C(=O)[C@H](C)NC(=O)CCC(=O)Nc3cccc2c3)cc1OC [Compound 1624]
IC50 [1]: 31.4 nM

COc1ccc(CC[C@H]2OC(=O)[C@@H]3CCCCN3C(=O)C(=O)C(C)(C)COC(=O)C=CCCN(C)C(=O)[C@@H](Cc3ccccc3)NC(=O)CN(C)C(=O)[C@@H](Cc3ccccc3)NC(=O)[C@H](Cc3ccc(O)cc3)N(C)C(=O)COc3ccc(F)c2c3)cc1OC [Compound 1575]
Prolif, H929 (H929): low
Rel. Uptake, 293T [2]: low

COc1ccc(OC)c(OC)c1CC[C@H]1OC(=O)[C@@H]2CCCCN2C(=O)C(=O)C(C)(C)COC(=O)C=CCCN(C)C(=O)[C@@H](Cc2ccccc2)NC(=O)CN(C)C(=O)[C@@H](Cc2ccccc2)NC(=O)[C@H](Cc2ccc(O)cc2)N(C)C(=O)COc2cccc1c2 [Compound 1583]
Prolif, H929 (H929): low
Rel. Uptake, 293T [2]: low

COc1ccc(CC[C@H]2OC(=O)[C@@H]3CCCCN3C(=O)C(=O)C(C)(C)COC(=O)/C=C/CCN(C)C(=O)[C@H](C(C)C)N(C)C(=O)[C@@H]3CCCN3C(=O)[C@@H](Cc3ccccc3)N(C)C(=O)[C@H](C)NC(=O)COc3cccc2c3)cc1OC [Compound 1612]
IC50 [1]: 33.5 nM

COc1ccc(CC[C@H]2OC(=O)[C@@H]3CCCCN3C(=O)C(=O)C(C)(C)COC(=O)/C=C/CCN(C)C(=O)[C@H](C(C)C)N(C)C(=O)[C@@H]3CCCN3C(=O)[C@@H](Cc3ccccc3)N(C)C(=O)[C@H](CC(C)C)NC(=O)CCC(=O)Nc3cccc2c3)cc1OC [Compound 1608]
IC50 [1]: 54.1 nM

COc1ccc(CC[C@H]2OC(=O)[C@@H]3CNCCN3C(=O)C(=O)C(C)(C)COC(=O)C=CCCN(C)C(=O)[C@@H](Cc3ccccc3)NC(=O)CN(C)C(=O)[C@@H](Cc3ccccc3)NC(=O)[C@H](Cc3ccc(O)cc3)N(C)C(=O)COc3cccc2c3)cc1OC [Compound 1573]
Prolif, H929 (H929): low
Rel. Uptake, 293T [2]: low

CCC[C@@H]1NC(=O)COc2cccc(c2)[C@@H](CCc2ccc(OC)c(OC)c2)OC(=O)[C@@H]2CCCCN2C(=O)C(=O)C(C)(C)COC(=O)/C=C/CCN(C)C(=O)[C@H]([C@@H](C)CC)N(C)C(=O)[C@@H]2CCCN2C(=O)[C@@H](Cc2ccccc2)N(C)C1=O [Compound 1618]
IC50 [1]: 173 nM

COc1ccc(CC[C@H]2OC(=O)[C@@H]3CCCCN3C(=O)C(=O)C(C)(C)COC(=O)C=CCCN(C)C(=O)[C@@H](Cc3ccccc3)NC(=O)CN(C)C(=O)[C@@H](Cc3ccccc3)NC(=O)[C@H](Cc3ccc(O)cc3)N(C)C(=O)COc3cncc2c3)cc1OC [Compound 1580]
Prolif, H929 (H929): low
Rel. Uptake, 293T [2]: low

COc1ccc(CC[C@H]2OC(=O)[C@@H]3CCCCN3C(=O)C(=O)C(C)(C)COC(=O)C=CCCN(C)C(=O)[C@@H](Cc3ccccc3)NC(=O)CN(C)C(=O)[C@@H](Cc3ccccc3)NC(=O)[C@H](Cc3ccc(O)cc3)N(C)C(=O)COc3cccc2c3)c(OC)c1OC [Compound 1577]
Prolif, H929 (H929): medium
Rel. Uptake, 293T [2]: medium

COc1cc(F)c(CC[C@H]2OC(=O)[C@@H]3CCCCN3C(=O)C(=O)C(C)(C)COC(=O)C=CCCN(C)C(=O)[C@@H](Cc3ccccc3)NC(=O)CN(C)C(=O)[C@@H](Cc3ccccc3)NC(=O)[C@H](Cc3ccc(O)cc3)N(C)C(=O)COc3cccc2c3)cc1OC [Compound 1570]
Prolif, H929 (H929): medium
Rel. Uptake, 293T [2]: medium

COc1ccc(CC[C@H]2OC(=O)[C@@H]3CCCCN3C(=O)C(=O)C(C)(C)COC(=O)C=CCCN(C)C(=O)[C@@H](Cc3ccccc3)NC(=O)CN(C)C(=O)[C@@H](Cc3ccccc3)NC(=O)[C@H](Cc3ccc(O)cc3)N(C)C(=O)COc3cc(F)cc2c3)cc1OC [Compound 1576]
Prolif, H929 (H929): medium
Rel. Uptake, 293T [2]: medium

COc1cc(O)c(CC[C@H]2OC(=O)[C@@H]3CCCCN3C(=O)C(=O)C(C)(C)COC(=O)C=CCCN(C)C(=O)[C@@H](Cc3ccccc3)NC(=O)CN(C)C(=O)[C@@H](Cc3ccccc3)NC(=O)[C@H](Cc3ccc(O)cc3)N(C)C(=O)COc3cccc2c3)cc1OC [Compound 1568]
Prolif, H929 (H929): low
Rel. Uptake, 293T [2]: low

COc1cc(CC[C@H]2OC(=O)[C@@H]3CCCCN3C(=O)C(=O)C(C)(C)COC(=O)C=CCCN(C)C(=O)[C@@H](Cc3ccccc3)NC(=O)CN(C)C(=O)[C@@H](Cc3ccccc3)NC(=O)[C@H](Cc3ccc(O)cc3)N(C)C(=O)COc3cccc2c3)cc(O)c1OC [Compound 1567]
Prolif, H929 (H929): medium
Rel. Uptake, 293T [2]: medium

COc1cc(CC[C@H]2OC(=O)[C@@H]3CCCCN3C(=O)C(=O)C(C)(C)COC(=O)C=CCCN(C)C(=O)[C@@H](Cc3ccccc3)NC(=O)CN(C)C(=O)[C@@H](Cc3ccccc3)NC(=O)[C@H](Cc3ccc(O)cc3)N(C)C(=O)COc3cccc2c3)c(OC)c(OC)c1 [Compound 1582]
Prolif, H929 (H929): low
Rel. Uptake, 293T [2]: low

COc1ccc(CC[C@H]2OC(=O)[C@@H]3CCCCN3C(=O)C(=O)C(C)(C)COC(=O)C=CCCN(C)C(=O)[C@@H](Cc3ccccc3)NC(=O)CN(C)C(=O)[C@@H](Cc3ccccc3)NC(=O)[C@H](Cc3ccc(O)cc3)N(C)C(=O)COc3cc2ccc3F)cc1OC [Compound 1578]
Prolif, H929 (H929): low
Rel. Uptake, 293T [2]: low

COc1cc(CC[C@H]2OC(=O)[C@@H]3CCCCN3C(=O)C(=O)C(C)(C)COC(=O)C=CCCN(C)C(=O)[C@@H](Cc3ccccc3)NC(=O)CN(C)C(=O)[C@@H](Cc3ccccc3)NC(=O)[C@H](Cc3ccc(O)cc3)N(C)C(=O)COc3cccc2c3)cc(OC)c1OC [Compound 1566]
Prolif, H929 (H929): medium
Rel. Uptake, 293T [2]: medium

COc1cc(OC)c(OC)cc1CC[C@H]1OC(=O)[C@@H]2CCCCN2C(=O)C(=O)C(C)(C)COC(=O)C=CCCN(C)C(=O)[C@@H](Cc2ccccc2)NC(=O)CN(C)C(=O)[C@@H](Cc2ccccc2)NC(=O)[C@H](Cc2ccc(O)cc2)N(C)C(=O)COc2cccc1c2 [Compound 1581]
Prolif, H929 (H929): medium
Rel. Uptake, 293T [2]: medium

COc1cc(CC[C@H]2OC(=O)[C@@H]3CCCCN3C(=O)C(=O)C(C)(C)COC(=O)C=CCCN(C)C(=O)[C@@H](Cc3ccccc3)NC(=O)CN(C)C(=O)[C@@H](Cc3ccccc3)NC(=O)[C@H](Cc3ccc(O)cc3)N(C)C(=O)COc3cccc2c3)cc(F)c1OC [Compound 1569]
Prolif, H929 (H929): low
Rel. Uptake, 293T [2]: low

COc1ccc(CC[C@H]2OC(=O)[C@@H]3CN(C)CCN3C(=O)C(=O)C(C)(C)COC(=O)C=CCCN(C)C(=O)[C@@H](Cc3ccccc3)NC(=O)CN(C)C(=O)[C@@H](Cc3ccccc3)NC(=O)[C@H](Cc3ccc(O)cc3)N(C)C(=O)COc3cccc2c3)cc1OC [Compound 1574]
Prolif, H929 (H929): low
Rel. Uptake, 293T [2]: low

COc1ccc(CC[C@H]2OC(=O)[C@@H]3CCCCN3C(=O)C(=O)C(C)(C)COC(=O)C=CCCN(C)C(=O)[C@@H](Cc3ccccc3)NC(=O)CN(C)C(=O)[C@@H](Cc3ccccc3)NC(=O)[C@H](Cc3ccc(O)cc3)N(C)C(=O)COc3cccc2c3)c(F)c1OC [Compound 1571]
Prolif, H929 (H929): low
Rel. Uptake, 293T [2]: low
